{"source": "paper PMC5298231", "about": "“The Malaria Parasite's Lactate Transporter PfFNT Is the Target of Antiplasmodial Compounds Identified in Whole Cell Phenotypic Screens” (PLoS Pathogens, 2017)", "key": {"[1]": {"tested_on": "MMV007839-selected culture A (PfFNT Gly107Ser)", "test": "Parasite proliferation assay, MMV007839-selected culture A", "type": "cell-based, Plasmodium falciparum", "conditions": "MMV007839-selected culture A; mean ± SEM; read-out: IC50 value, growth inhibition", "method": "(§1) Parasite proliferation was measured in 96-well plates using a fluorescent DNA-intercalating dye. The assays were initiated with erythrocytes infected with predominantly ring-stage parasites, and the starting parasitaemia was 0.5–1% and the haematocrit was 1%.\nFor MMV007839-selected culture A, the drug concentration was increased by 5 nM increments on Day 18, Day 21, and every two days thereafter. […] The cultures were provided with fresh medium and blood and diluted to reduce the parasitaemia as needed."}, "3D7 parasites [2]": {"tested_on": "3D7 parasites", "test": "Parasite proliferation assay, 3D7", "type": "cell-based, Plasmodium falciparum", "conditions": "3D7 (our laboratory); mean ± SEM; read-out: IC50 value, growth inhibition", "method": "as §1"}, "[3]": {"tested_on": "PfCRT (from the chloroquine-resistant Dd2 strain)", "test": "[3H]chloroquine uptake by Xenopus oocytes expressing PfCRT", "type": "cell-based, Plasmodium falciparum", "conditions": "1 μM and 4 μM; pH 5.5", "description": "(§2) (PfCRT; from the chloroquine-resistant Dd2 strain) and on [^3H]hypoxanthine transport by oocytes expressing the P. falciparum equilibrative nucleoside/nucleobase transporter PfENT1 [27, 28].\nThe oocyte expression vectors containing PfFNT, PfENT1 and PfCRT were made previously. The Gly107Ser mutant form of PfFNT was generated through site-directed mutagenesis of the oocyte expression vector containing wild-type (3D7) PfFNT using primers 9 and 10 (S2 Table). Oocytes were harvested from adult female Xenopus laevis frogs and prepared as described previously. cRNA was made using the mMessage mMachine T7 transcription kit and the MEGAclear kit (Ambion) and microinjected into oocytes as outlined elsewhere. […] The uptake of radiolabelled substrates was measured 2–5 days post-injection at 27.5°C in ND96 buffer (containing 96 mM NaCl, 2 mM KCl, 1 mM MgCl2, 1.8 mM CaCl2, 10 mM MES and 10 mM Tris-base; pH-adjusted to the value specified in the relevant Figure legends). […] The oocytes were then transferred to separate wells of a 96-well plate, lysed with 10% SDS, and the radioactivity measured as described previously.\nThe data are averaged from four to five independent experiments (performed using oocytes from different frogs) and are shown + SEM. In B, the uptake of [^3H]hypoxanthine (0.36 μM) was measured over 30 min at pH 6.0. […]"}, "PfENT1": {"tested_on": "PfENT1", "test": "[3H]hypoxanthine uptake by Xenopus oocytes expressing PfENT1", "type": "cell-based, Plasmodium falciparum", "conditions": "1 μM and 4 μM; pH 6.0, 30 min", "description": "as §2\nThe oocyte expression vectors containing PfFNT, PfENT1 and PfCRT were made previously. The Gly107Ser mutant form of PfFNT was generated through site-directed mutagenesis of the oocyte expression vector containing wild-type (3D7) PfFNT using primers 9 and 10 (S2 Table). Oocytes were harvested from adult female Xenopus laevis frogs and prepared as described previously. cRNA was made using the mMessage mMachine T7 transcription kit and the MEGAclear kit (Ambion) and microinjected into oocytes as outlined elsewhere. The amount of cRNA injected (per oocyte) was 30 ng for PfFNT, 10 ng for PfENT1, and 20 ng for PfCRT. The uptake of radiolabelled substrates was measured 2–5 days post-injection at 27.5°C in ND96 buffer (containing 96 mM NaCl, 2 mM KCl, 1 mM MgCl2, 1.8 mM CaCl2, 10 mM MES and 10 mM Tris-base; pH-adjusted to the value specified in the relevant Figure legends). […] Each experiment used ten oocytes for each condition tested. The influx of the radiolabelled substrate was halted by removing the reaction buffer and washing the oocytes twice in ice-cold ND96 buffer (3.5 mL). The oocytes were then transferred to separate wells of a 96-well plate, lysed with 10% SDS, and the radioactivity measured as described previously.\nThe data are averaged from four to five independent experiments (performed using oocytes from different frogs) and are shown + SEM. In B, the uptake of [^3H]hypoxanthine (0.36 μM) was measured over 30 min at pH 6.0. […] The data are averaged from three to six independent experiments (performed using oocytes from different frogs) and are shown + SEM. […] (TIF) Click here for additional data file."}, "3D7 parasites [4]": {"tested_on": "3D7 parasites", "conditions": "cited from earlier work"}, "Dd2 parental parasites": {"tested_on": "Dd2 parental parasites", "test": "L-[14C]lactate uptake by isolated Dd2 parental parasites", "conditions": "read-out: IC50, inhibition of L-[14C]lactate uptake; Dd2 (parental) parasites; pH 6.1, 4°C, 20 s; mean ± SEM"}, "[5]": {"tested_on": "erythrocytes infected with 3D7 trophozoites (extracellular medium)", "test": "LC-MS metabolite profiling, extracellular medium of parasitised erythrocyte suspensions", "conditions": "6 μM"}}, "note": "Where two headings read alike, the source gives them in different places."}
{"smiles": "COc1ccc2c(c1)OC(O)(C(F)(F)C(F)(F)F)CC2=O", "note": "(stereo not drawn) [MMV007839]", "values": [{"measurement": "IC50", "setting": "[1]", "result": "35.8 ± 2.7", "unit": "µM"}, {"measurement": "IC50", "setting": "3D7 parasites [2]", "result": "0.26 ± 0.03", "unit": "µM"}, {"measurement": "Effect on transport of [3H]chloroquine via PfCRT", "setting": "[3]", "result": "not inhibiting"}, {"measurement": "Inhibition of [3H]hypoxanthine uptake by PfENT1-expressing oocytes", "setting": "PfENT1", "result": "not inhibiting"}, {"measurement": "IC50", "setting": "3D7 parasites [4]; ref [1] Van Voorhis et al. 2016, read-out: IC50 for killing of 3D7 parasites", "result": 0.28, "unit": "µM"}, {"measurement": "IC50", "setting": "3D7 parasites [4]; ref http://www.mmv.org/research-development/malaria-box-supporting-information, read-out: IC50 against 3D7 parasites, other groups", "result": "0.283 to 0.442", "unit": "µM"}, {"measurement": "IC50", "setting": "Dd2 parental parasites", "result": "0.158 ± 0.042", "unit": "µM"}, {"measurement": "Extracellular lactate level, treated vs untreated", "setting": "[5]; not statistically significant", "result": "decreased"}, {"measurement": "Extracellular pyruvate level, treated vs untreated", "setting": "[5]; not statistically significant", "result": "increased"}, {"measurement": "Extracellular α-ketoglutarate level, treated vs untreated", "setting": "[5]; not statistically significant", "result": "decreased"}, {"measurement": "Extracellular 3-phosphoglycerate level, treated vs untreated", "setting": "[5]; statistically significant", "result": "increased"}, {"measurement": "Extracellular phosphoenolpyruvate level, treated vs untreated", "setting": "[5]; statistically significant", "result": "increased"}]}
